On the set-up of data set [1]: method as in PMID 35551294. Conditions: cited from earlier work.
The subject of data set [2] is P-gp. The note with it: cited from earlier work.
Data set [3] in a line: Plasma pharmacokinetics by LC-MS/MS in OVCAR3 xenograft tumor-bearing nude mice. Format: in vivo, BALB/c nude mice. Conditions: n = 3. The protocol: This study, approved by Fudan University Ethics Committee (protocol code: 201904008Z) on 26 April 2019, was conducted in compliance with AAALAC’s International Commission guidelines for laboratory animal evaluation and accreditation. A total of 36 female BALB/c nude mice (6–8 weeks old, weighing 18–20 g) were purchased from Charles River Laboratories (Pinghu, China). The OVCAR3 ovarian cancer cell line (ATCC® HTB-161™) was used to establish human xenografts. OVCAR3 cells (10 × 10^6) suspended in 0.2 mL of Matrigel were subcutaneously inoculated into the dorsal region of each mouse. Tumors were allowed to grow until reaching a volume of ~160 mm^3, typically around 30 days post-inoculation.
WX390 was prepared in Solvent-1, comprising dimethyl sulfoxide (DMSO): methylcellulose: water at a ratio of 1:1:98 (v/v/v). BYL719 and dorzagliatin were formulated in Solvent-2, consisting of Tween 80: water with 0.5% methylcellulose (MC) solution at a ratio of 0.2:99.8 (v/v). The treatment control was a combination of Solvent-1 and Solvent-2. The test compounds were administered orally as follows: WX390 at 0.2 mg/kg, BYL719 at 25 mg/kg, and dorzagliatin at 10 mg/kg, dissolved in their respective formulations. Due to ethical considerations regarding gavage volume the administration volume across all groups was standardized to 10 μL/g of body weight.
The experiment involved six treatment groups, each comprising six mice. The groups included: (i) vehicle control, (ii) WX390 (0.2 mg/kg), (iii) BYL719 (25 mg/kg), (iv) dorzagliatin (10 mg/kg), (v) WX390 (0.2 mg/kg) + dorzagliatin (10 mg/kg), and (vi) BYL719 (25 mg/kg) + dorzagliatin (10 mg/kg). All treatments were administered via oral gavage once daily for four weeks. In the combination group of PI3Ki and dorzagliatin, dorzagliatin was administered 30 min prior to PI3Ki.
Following the 4-week treatment period, all experimental groups were fasted 6 h before the last administration until the end of the experiment. Water was not restricted during the fasting period. Blood samples were collected at 0, 0.5, 1, 2, 4, and 8 h after administration. Each mouse had 3 blood collection points, with 50 μL of plasma collected at each point. Mice in each group were allocated to two cohorts: The first cohort underwent blood collection at 0, 1, and 2 h post-administration, while the second cohort was sampled at 0.5, 4, and 8 h post-administration. Terminal blood collection at the 2-h time point for the first cohort was performed via cardiac puncture following euthanasia, during which tumor tissues were concurrently harvested from this cohort. Blood samples were processed through centrifugation (4 °C, 1500× g for 10 min) for plasma separation. All plasma and tumor samples were immediately snap-frozen in liquid nitrogen and stored at −80 °C for subsequent analysis.
The extraction of WX390, BYL719, and dorzagliatin from plasma samples was performed using protein precipitation. Internal standards (IS) included SBL-D3, BNSL-D5, and PLPL-D8 for WX390, BYL719, and dorzagliatin, respectively. Plasma samples (20 μL) were mixed with 20 μL of zinc sulfate aqueous solution (0.1 mol/L) and 200 µL of a 50% methanol solution containing three internal standards followed by vortexing for 10 min. The samples were centrifuged at 4 °C (15,000× g for 5 min). The supernatant (180 μL) was transferred to a clean Eppendorf tube, and a 10 μL aliquot was injected into the LC-MS/MS system.
Chromatographic separations were performed using an AB SCIEX Jasper HPLC system coupled with an AB SCIEX Triple Quad 4500MD mass spectrometer (AB SCIEX, USA). A Phenomenex Kinetex C18 column (100 × 3 mm, 2.6 μm) was used at 40 °C. The flow rate was maintained at 0.4 mL/min with a total run time of 4 min. […]

The conditions of data set [4]: cited from earlier work.
Where [5] appears, read: Dorz 10 mg/kg measured in Dorz + BYL719 (25 mg/kg) group, oral.
Setting [6] is: Dorz 10 mg/kg measured in Dorz + WX390 (0.2 mg/kg) group, oral.
Where [7] appears, read: monotherapy group, plasma, oral gavage once daily for four weeks, Dorz 10 mg/kg, WX390 0.2 mg/kg, BYL719 25 mg/kg.
The mark [8] stands for this setting: co-administration with moderate CYP3A4 inhibitors such as verapamil, fluconazole, erythromycin.

Each structure is given as a SMILES string. Like-named read-outs stand apart in the source and are kept apart here. Some results are limits rather than exact numbers.

For `CC(C)C[C@@H](C(=O)Nc1ccn(C[C@@H](O)CO)n1)N1CC(Oc2ccccc2Cl)=CC1=O` [Dorz, Dorzagliatin], the “patients with clinically significant hypoglycemic events (blood glucose < 54 mg/dL)” value in data set [1] (24-week double-blind treatment period, 1 of 310 patients) was 0.3%. Moreover, in data set [1] (52-week observation period), the “exposure-adjusted event rate for clinically significant hypoglycemia” value is 0.006 events per patient-year. The P-gp substrate status entry in data set [2] was “substrate of P-gp”. Also, in data set [3] (setting [5]), the AUC0→t was determined as 3.95358 µg·h/mL; the highest concentration (Cmax) (in general, the highest concentration seen after dosing) worked out at 2.01333 µg/mL; the Tmax (as a rule, the time from dosing to the highest level) was found to be 1.00 h; the t1/2 is reported as 1.86 h. Further, in data set [3] (setting [6]), the AUC0→t stood at 4.65723 µg·h/mL, the highest concentration (Cmax) was 1.77667 µg/mL, the Tmax came out at 0.50 h and the t1/2 is recorded as 2.93 h. Besides, in data set [3] (setting [7]), the AUC0→t turned out to be 3.2879 µg·h/mL, the Cmax was found to be 1.331 µg/mL, the time of peak concentration (Tmax) worked out at 0.50 h and the t1/2 came to 2.15 h. Moreover, the “time to steady-state plasma pharmacokinetics” value in data set [4] (T2DM patients, twice-daily oral administration) was at most 4 days. Also, in data set [4] (after oral administration), the AUCtau was 5.57 µg·h/mL, the peak concentration (Cmax) is 1.09 µg/mL and the “median Tmax” value is 1.31 h. Further, the Metabolism entry in data set [4] is “primarily occurs in the liver via cytochrome P450 enzyme 3A4 (CYP3A4)”. Further, in data set [4] (setting [8]), the “fold increase in AUC0→t of dorzagliatin” value is 2.4 fold and the “fold increase in Cmax of dorzagliatin” value is given as 1.2 fold. The “mean apparent volume of distribution” value in data set [4] (single 50 mg oral dose, healthy subjects) is on record as 115 L.
